Reference: US8507460B2, “Substituted 3′,5′-cyclic phosphates of purine nucleotide compounds and pharmaceutical compositions for the treatment of viral infections” (priority 2011, dated 2013)

Assay: Stability in liver and intestinal subcellular fractions (microsomes and S9)
Type: in vitro ADME, human
Conditions: 10 μM, NADPH, 60 min, percent unchanged
Description: Stability of test compounds were determined in subcellular fractions (microsomes and S9) of human liver and intestine in duplicate for each matrix. Pooled liver and intestinal microsomal, intestinal and liver S9 proteins (1.0 mg/mL), suspended in incubation buffer (100 mM potassium phosphate, pH […], and 0.1 mM EDTA), were preincubated for 5 min at 37° C. with 10 μM of a test compound from a 10 mM stock solution in DMSO (final DMSO concentration was 0.1%); the reaction was initiated by the addition of NADPH (3 mM final concentration). At specific times (0 and 60 min), 0.1 mL samples were taken and the reaction terminated by the addition of 4 volumes of stop solution (acetonitrile with 500 ng/mL carbutamide as an internal standard). The samples were vortexed for 30 sec and then centrifuged at 16,000 g for 10 min. 100 μL of supernatants were transferred to 96 deep-well plates preloaded with 100 μL distilled water and analyzed after mixing by LC-MS/MS. The MS peak area ratio of the test compound versus the internal standard was calculated and percent unchanged test compound over 60 minutes was calculated using this ratio.

CCOc1nc(N)nc2c1ncn2[C@@H]1O[C@@H]2COP(=O)(OC(C)C)O[C@H]2[C@@]1(C)O (single isomer, unassigned) [Compound 1a]
Stability HIS9 (1 hr) (HIS9 1.0 mg/mL): 106%
Stability HIM (1 hr) (human intestinal microsome 1.0 mg/mL): 107%
Stability HLS9 (1 hr) (human liver S9 fraction 1.0 mg/mL): 111%
Stability HLM (1 hr) (human liver microsome 1.0 mg/mL): 100%
